Inconclusive results are not listed.
Tested on: HRAS cells, caspase 3/7 apoptosis luminescence, multiple timepoints
Experiment: time-course apoptosis signal, HRAS cell line – caspase 3/7 luminescence, plate reader, dry powder, mechanism study for HRAS target identification (AID 720625)

## COc1ccc(N(C(=O)CCl)C(C(=O)NCCc2ccccc2)c2cccs2)cc1Cl (centres undefined)
  AC40: 7.66 µM
Measured here: timepoint 1
  AC40: 22.2 µM
Measured here: timepoint 2
  AC40: 0.177 µM
Measured here: timepoint 3
  AC40: 0.551 µM

From PubChem BioAssay AID720625 (Broad Institute, 2013)
